Results: patent publication US11123033B2, “Molecular imaging method for evaluating liver regeneration capacity after ALPPS operation” (Harbin Medical University, priority 2019, dated 2021)

System: rabbit VX2 liver cancer model
Assay: 18F-FCH PET/CT imaging of residual liver after first-stage ALPPS
Format: in vivo
Details: ALPPS group
Description: using incision and fragmentation method for liver cancer tissues; first inoculating a VX2 tumor strain into the muscle outside the rabbit hind leg after passage, wherein the tumor grows to a diameter of 2.0-3.0 cm after 3 weeks; removing the tumor in the muscle of the rabbit hind, eliminating the necrotic tissue, selecting fish-like tissue at the edge of the tumor, and using ophthalmic scissors to cut the tumor tissue into tissue blocks of 1 mm3, and washing repeatedly with saline and putting in a sterile Petri dish for use; putting an experimental rabbit into general anesthesia (method of anesthesia: intramuscular injection of Shutai 1 ml) and fixing it on an animal operating table in supine position; performing skin preparation, disinfection, and spreading sterile surgical scarves on a surgical region of a rabbit abdomen; injecting lidocaine into linea alba 1 cm below xiphoid process for local anesthesia, and making a midline incision of 4 to 5 cm in an upper abdomen and cutting abdominal wall layer by layer to expose a left lateral lobe of a liver; cutting a thicker liver lobe to form a hole passage of about 3 mm×3 mm, and implanting 3-5 tumors into it, then filling liver incision with gelatin sponge particles and pressing to stop bleeding, followed by suturing the incision and closing the abdomen.
two weeks after implanting the rabbit liver with the VX2 tumor strain, performing the first stage of ALPPS (i.e. associating liverpartition and portal vein ligation for staged hepatectomy) on tumor-bearing rabbits;
dividing the tumor-bearing rabbits randomly into an ALPPS group (the left branch of the portal vein of the liver is ligated, and the liver parenchyma is dissected along the ischemic line between the left middle lobe of the liver and the right lobe of the liver) and a Sham group (i.e., a sham operation group, no portal vein ligation and liver dissection); fasting rabbits in the ALPPS group for 12 hours before surgery, and fixing on the table in the supine position after general anesthesia, and performing skin preparation in the surgical region; injecting lidocaine into the left under the xiphoid process, opening the abdomen after anesthesia around the incision with an incision length of about 5-7 cm, exposing and separating the left branch of the portal vein and ligating with 4-0 surgical sutures, then after an ischemic line between the left and right liver is formed, using the surgical scissors to cut off the liver parenchyma along the ischemic line; filling the partition with gel sponge particles for hemostasis, after no obvious bleeding, closing the abdominal wall incision layer by layer, closing the abdominal cavity, and disinfecting the incision with iodophor. […]

Structure (SMILES): C[N+](C)(C[18F])CCO [18 F-FCH, [18 F] fluoromethylcholine]
- 18 F-FCH intake in the residual liver (after 14 days): decreases slightly
- 18 F-FCH uptake in the residual liver tissue (first 3 days after surgery): increases rapidly
- 18 F-FCH uptake in the residual liver tissue (from the 1st postoperative day, PET/CT 1 h after 37 MBq/kg i.v.): significant high uptake
- time at which 18 F-FCH uptake reaches a peak (residual liver, days after surgery): around 7 days
